The source of these data is patent US12268683B2, “Compounds and methods for synergistic activation of M channels” (THE REGENTS OF THE UNIVERSITY OF CALIFORNIA, priority 2018, dated 2025).

In one assay the target is KCNQ2-W236L/KCNQ3 (Homo sapiens, UniProt O43525+O43526, W236L). The assay can be described thus: TEVC of KCNQ2-W236L/KCNQ3 channels. In kind it is cell-based. An excerpt: As previously described (12), we generated cRNA transcripts encoding human KCNA1, KCNE1, KCNE2, KCNE3, KCNQ1, KCNQ2, KCNQ3, KCNQ4 or KCNQ5 by in vitro transcription using the T7 polymerase mMessage mMachine kit (Thermo Fisher Scientific), after vector linearization, from cDNA sub-cloned into plasmids incorporating Xenopus laevis β-globin 5′ and 3′ UTRs flanking the coding region to enhance translation and cRNA stability. We quantified cRNA by spectrophotometry. We generated mutant KCNQ2 and KCNQ3 cDNAs by site-directed mutagenesis with a QuikChange kit (Stratagene, San Diego, Calif.) and prepared the cRNAs as above. We injected defolliculated stage V and VI Xenopus laevis oocytes (Ecocyte Bioscience, Austin, Tex. and Xenoocyte, Dexter, Mich., US) with KCNE and/or KCNQ cRNAs (5-20 ng). We incubated the oocytes at 16° C. in Barth's saline solution (Ecocyte) containing penicillin and streptomycin, with daily washing, for 3-5 days prior to two-electrode voltage-clamp (TEVC) recording.
We performed TEVC at room temperature using an OC-725C amplifier (Warner Instruments, Hamden, Conn.) and pClamp10 software (Molecular Devices, Sunnyvale, Calif.) 2-5 days after cRNA injection as described in the section above. For recording, we placed the oocytes in a small-volume oocyte bath (Warner) and viewed them with a dissection microscope. We sourced chemicals from Sigma unless otherwise stated. We studied effects of 1% cilantro extract and of nine compounds previously identified in cilantro extract. Vanillic acid and 3,4-Dihydroxybenzoic acid were each solubilized in 100% ethanol at a stock concentration of 100 mM; the other compounds were solubilized directly in bath solution. We initially screened for KCNQ2/3 channel activity using 100 μM concentrations of each of the nine components, then conducted dose responses where appropriate. […] We recorded currents in response to voltage pulses between −120 or −80 mV and +40 mV at 20 mV intervals from a holding potential of −80 mV, to yield current-voltage relationships, current magnitude, and for quantifying activation rate. We analyzed data using Clampfit (Molecular Devices) and Graphpad Prism software (GraphPad, San Diego, Calif., USA); values are stated as mean±SEM. […]
We generated cRNA transcripts encoding human KCNQ1, KCNQ2, KCNQ3, KCNQ4, KCNQ5 or GLRA1 (NM_001146040) (GenScript, Piscataway, N.J., USA) by in vitro transcription using the T7 polymerase mMessage mMachine kit (Thermo Fisher Scientific), after vector linearization, from cDNA sub-cloned into plasmids incorporating Xenopus laevis β-globin 5′ and 3′ UTRs flanking the coding region to enhance translation and cRNA stability. We quantified cRNA by spectrophotometry. […]

Another assay has as its target T1, GLRA1 (Homo sapiens, UniProt P23415).
T1 sequence (P23415 29-457): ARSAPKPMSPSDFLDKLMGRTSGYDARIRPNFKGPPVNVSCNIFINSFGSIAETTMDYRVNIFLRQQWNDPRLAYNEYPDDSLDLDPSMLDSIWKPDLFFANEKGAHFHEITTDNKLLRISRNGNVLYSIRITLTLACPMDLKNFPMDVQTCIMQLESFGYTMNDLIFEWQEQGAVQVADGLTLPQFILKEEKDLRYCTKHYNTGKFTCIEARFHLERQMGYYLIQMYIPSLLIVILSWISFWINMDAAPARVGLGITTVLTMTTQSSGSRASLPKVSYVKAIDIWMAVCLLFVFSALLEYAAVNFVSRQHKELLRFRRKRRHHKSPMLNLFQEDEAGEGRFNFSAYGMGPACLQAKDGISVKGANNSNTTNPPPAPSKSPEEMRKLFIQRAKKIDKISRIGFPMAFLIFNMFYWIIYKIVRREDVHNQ
Kind of assay: TEVC of glycine receptor GLRA1 expressed in oocytes. The note with it: for activation of GLRA1 by compound alone: 1 mM. In kind it is cell-based. From the text:
We generated cRNA transcripts encoding human KCNQ1, KCNQ2, KCNQ3, KCNQ4, KCNQ5 or GLRA1 (NM_001146040) (GenScript, Piscataway, N.J., USA) by in vitro transcription using the T7 polymerase mMessage mMachine kit (Thermo Fisher Scientific), after vector linearization, from cDNA sub-cloned into plasmids incorporating Xenopus laevis β-globin 5′ and 3′ UTRs flanking the coding region to enhance translation and cRNA stability. We quantified cRNA by spectrophotometry. We generated mutant KCNQ2 and KCNQ3 cDNAs by site-directed mutagenesis using a QuikChange kit (Stratagene, San Diego, Calif.) and prepared the corresponding cRNAs as above. We injected defolliculated stage V and VI Xenopus laevis oocytes (Ecocyte Bioscience, Austin, Tex. and Xenoocyte, Dexter, Mich.) with KCNQ channel a subunit (5-20 ng) or GLRA1 (20 ng) cRNAs. We incubated the oocytes at 16° C. in Barth's saline solution (Ecocyte) containing penicillin and streptomycin, with daily washing, for 2-5 days prior to two-electrode voltage-clamp (TEVC) recording.
We performed TEVC at room temperature using an OC-725C amplifier (Warner Instruments, Hamden, Conn.) and pClamp10 software (Molecular Devices, Sunnyvale, Calif.) 3-5 days after cRNA injection as described in the section above. For recording, oocytes were placed in a small-volume oocyte bath (Warner) and viewed them with a dissection microscope. Chemicals were sourced from Sigma, Matrix Scientific and Santa Cruz. […] All stock solutions were diluted in bath solution on the day of experiments. KCNQ2/3 channel activation was screened for using either 30 μM or 100 μM concentrations of each of the six compounds, then dose responses were conducted as appropriate. Bath solution was (in mM): 96 NaCl, 4 KCl, 1 MgCl2, 1 CaCl2, 10 HEPES (pH 7.6). Compounds were introduced into the oocyte recording bath by gravity perfusion at a constant flow of 1 ml per minute for 3 minutes prior to recording. Pipettes were of 1-2 MΩ resistance when filled with 3 M KCl. Currents were recorded in response to voltage pulses between −120 or −80 mV and +40 mV at 20 mV intervals from a holding potential of −80 mV, to yield current-voltage relationships, current magnitude, and for quantifying activation rate. We analyzed data using Clampfit (Molecular Devices) and Graphpad Prism software (GraphPad, San Diego, Calif., USA); values are stated as mean±SEM. We plotted raw or normalized tail currents versus prepulse voltage and fitted with a single Boltzmann function: […]

`CCCCCCCCC/C=C/C=O` [(E)-2-dodecenal]: the “potency reduction by KCNQ2-W236L relative to KCNQ3-W265L mutation” value on KCNQ2-W236L/KCNQ3 was 20 fold. Also, the “maximal shift in ΔV0.5activation” value at KCNQ2-W236L/KCNQ3 ((E)-2-dodecenal) is listed as −9 mV. The concentration for a half-maximal effect (EC50) (usually the concentration at which the effect is half-maximal) on KCNQ2-W236L/KCNQ3 (ΔV0.5activation, read-out: EC50 of (E)-2-dodecenal) turned out to be 5.07 ± 0.5 µM.
For the molecule `NCC(=O)O` [glycine, reference compound], at GLRA1, the “activation of GLRA1 by compound alone” value is “robust activation”.
As to `CS(=O)(=O)N(CC(=O)O)c1cccc(F)c1` [3FMSG], on GLRA1 (100 μM, 1 mM glycine), the “inhibition of glycine-activated GLRA1” value is around 40% and the “inhibition of glycine-activated GLRA1 (in words)” value is on record as “partially inhibited”. Also, on GLRA1, the “activation of GLRA1 by compound alone” value was “lack of effects”. In addition, at KCNQ2-W236L/KCNQ3, the “effect on KCNQ2-W236L/KCNQ3 (in words)” value is “independent of KCNQ2-W236”.
